Reference: paper PMC7725003, “Systematically Studying the Optimal Amino Acid Distribution Patterns of the Amphiphilic Structure by Using the Ultrashort Amphiphiles” (Frontiers in Microbiology, 2020)
Where no end group is shown, it is not given here.

Key:
[1] = test system: E. faecalis 29212; format: cell-based, Enterococcus faecalis; settings: 29212, 24 h
Procedure: (§1) The antimicrobial activities of the peptides were measured using a method adapted from the National Committee for Clinical Laboratory Standards (NCCLS) with some modifications ([Chou et al., 2016]). The specific procedure for these assays has been previously described. In brief, the bacterial cells were grown to a mid-logarithmic phase and diluted in MHB to an ultimate concentration of 0.5–1 × 10^6 CFU mL^–1. Subsequently, the peptides were consecutively diluted in a 0.2% BSA solution and then added to a bacterial solution in a 96-well plate at identical volumes. After incubation for 24 h at 37°C, the MICs were determined to be the lowest peptide concentration that inhibited 95% of the bacterial growth by monitoring the absorbance at 492 nm using a microplate reader. Subsequently, 50 μL of each incubation mixture was further transferred to agar plates and incubated overnight. The minimum bactericidal concentrations (MBCs) were determined as the lowest peptide concentration that killed greater than 99.9% of the bacterial cells. Every assay was reproduced more than 3 times.

[2] = test system: Listeria monocytogenes CGMCC 1.1075; format: cell-based; settings: CGMCC 1.1075, 24 h
Procedure: as §1

[3] = test system: S. epidermidis 12228; format: cell-based, Staphylococcus epidermidis; settings: 12228, 24 h
Procedure: as §1

[4] = test system: MRSA 43300; format: cell-based, methicillin-resistant S. aureus; settings: 43300, 24 h
Procedure: as §1

[5] = test system: all of the tested bacterial strains; assay: Geometric mean of MICs, all tested bacterial strains; format: cell-based; settings: for GM, All: geometric mean of MICs across all tested strains; for TI, All: therapeutic index TI = MHC/GM MIC
Source text: The antimicrobial activity of AMPs is the most decisive index for evaluating the clinical application of antimicrobial drugs. Many antimicrobial agents inhibit bacterial growth rather than kill the bacteria quickly, and long-term infections are pathogens that are not completely killed, which results in bacterial severe drug resistance. […] The geometric mean (GM) values of the MICs/MBCs of the two series across all of the tested bacterial strains are represented in Table 3, which depicts the average bacteriostatic/bactericidal level of a peptide.
as §1

[6] = test system: S. pullorum 7913; format: cell-based, Salmonella pullorum; settings: 7913, 24 h
Procedure: as §1

[7] = test system: S. aureus 29213; format: cell-based, Staphylococcus aureus; settings: 29213, 24 h
Procedure: as §1

[8] = test system: S. aureus 25923; format: cell-based, Staphylococcus aureus; settings: 25923, 24 h
Procedure: as §1

[9] = test system: Gram-positive bacteria; settings: for GM, Gram-positive bacteria: geometric mean of MICs (Table 3); for TI, Gram-positive bacteria: therapeutic index TI = MHC/GM MIC
Procedure: (§2) The antimicrobial activity of AMPs is the most decisive index for evaluating the clinical application of antimicrobial drugs.
as §1, with “The minimum bactericidal concentrations (MBCs) were determined as the lowest peptide concentration that killed greater than 99.9% of the bacterial cells.” left out

[10] = test system: Gram-negative bacteria; settings: for GM, Gram-negative bacteria: geometric mean of MICs (Table 3); for TI, Gram-negative bacteria: therapeutic index TI = MHC/GM MIC
Procedure: as §2
as §1, with “The minimum bactericidal concentrations (MBCs) were determined as the lowest peptide concentration that killed greater than 99.9% of the bacterial cells.” left out

[11] = test system: E. coli ATCC 25922; assay: Salt sensitivity assay (MIC); format: cell-based, Escherichia coli; settings: for MIC, FeCl3: 4 μM FeCl3; for MIC, NH4Cl: 6 μM NH4Cl; for MIC, ZnCl2: 8 μM ZnCl2; for MIC, MgCl2: 1 mM MgCl2; for MIC, CaCl2: 2 mM CaCl2; for MIC, KCl: 4.5 mM KCl; for MIC, NaCl: 150 mM NaCl; for MIC, Control: no added salt, three independent assays
Procedure: as §1
(§3) The salt sensitivities of the peptides were determined. E. coli ATCC 25922 and S. aureus ATCC 29213 were incubated in the presence of various ultimate concentrations of physiological salts (150 mM NaCl, 4.5 mM KCl, 6 μM NH4Cl, 8 μM ZnCl2, 1 mM MgCl2, 2mM CaCl2, and 4 μM FeCl3) according to our previous protocol ([Yang et al., 2019]). These tests were performed under the MICs, and three independent assays were performed.

[12] = test system: E. coli O78; format: cell-based, Escherichia coli; settings: O78, 24 h
Procedure: as §1

[13] = test system: E. coli UB1005; format: cell-based, Escherichia coli; settings: UB1005, 24 h
Procedure: as §1

[14] = test system: E. coli 25922; format: cell-based, Escherichia coli; settings: 25922, 24 h
Procedure: as §1

[15] = test system: P. aeruginosa 27853; format: cell-based, Pseudomonas aeruginosa; settings: 27853, 24 h
Procedure: as §1

[16] = test system: S. aureus 29213; assay: Salt sensitivity assay (MIC); format: cell-based, Staphylococcus aureus; settings: for MIC, FeCl3: 4 μM FeCl3; for MIC, NH4Cl: 6 μM NH4Cl; for MIC, ZnCl2: 8 μM ZnCl2; for MIC, MgCl2: 1 mM MgCl2; for MIC, CaCl2: 2 mM CaCl2; for MIC, KCl: 4.5 mM KCl; for MIC, NaCl: 150 mM NaCl; for MIC, Control: no added salt, three independent assays
Procedure: as §1, §3

[17] = test system: B. subtilis 63501; format: cell-based, Bacillus subtilis; settings: 63501, 24 h
Procedure: as §1

[18] = test system: S. typhimurium 14028; format: cell-based, Salmonella typhimurium; settings: 14028, 24 h
Procedure: as §1

[19] = test system: S. typhimurium 7731; format: cell-based, Salmonella typhimurium; settings: 7731, 24 h
Procedure: as §1

RRWWWRWRW-NH2 [W8]
MBC [1]: 8 µM
MIC [1]: 4 µM
MBC [2]: 4 µM
MIC [2]: 2 µM
MBC [3]: 4 µM
MIC [3]: 2 µM
MBC [4]: 4 µM
MIC [4]: 2 µM
GM, All [5]: 2.71 µM
TI, All [5]: 47.23
MBC [6]: 4 µM
MIC [6]: 2 µM
MBC [7]: 4 µM
MIC [7]: 2 µM
MBC [8]: 4 µM
MIC [8]: 2 µM
GM, Gram-positive bacteria [9]: 2.00 µM
TI, Gram-positive bacteria [9]: 64.00
GM, Gram-negative bacteria [10]: 3.43 µM
TI, Gram-negative bacteria [10]: 37.32
MIC, FeCl3 [11]: 2 µM
MIC, NH4Cl [11]: 4 µM
MIC, ZnCl2 [11]: 4 µM
MIC, MgCl2 [11]: 16 µM
MIC, CaCl2 [11]: 8 µM
MIC, KCl [11]: 16 µM
MIC, NaCl [11]: 32 µM
MIC, Control [11]: 4 µM
MBC [12]: 8 µM
MIC [12]: 4 µM
MBC [13]: 8 µM
MIC [13]: 4 µM
MBC [14]: 8 µM
MIC [14]: 4 µM
MBC [15]: 8 µM
MIC [15]: 4 µM
MIC, FeCl3 [16]: 2 µM
MIC, NH4Cl [16]: 4 µM
MIC, ZnCl2 [16]: 4 µM
MIC, MgCl2 [16]: 4 µM
MIC, CaCl2 [16]: 4 µM
MIC, KCl [16]: 1 µM
MIC, NaCl [16]: 2 µM
MIC, Control [16]: 2 µM
MBC [17]: 2 µM
MIC [17]: 1 µM
MBC [18]: 8 µM
MIC [18]: 4 µM
MBC [19]: 8 µM
MIC [19]: 4 µM

RRWWWWRRW-NH2 [W7]
MBC [1]: 16 µM
MIC [1]: 8 µM
MBC [2]: 4 µM
MIC [2]: 2 µM
MBC [3]: 4 µM
MIC [3]: 2 µM
MBC [4]: 4 µM
MIC [4]: 2 µM
GM, All [5]: 4.00 µM
TI, All [5]: 64.00
MBC [6]: 8 µM
MIC [6]: 4 µM
MBC [7]: 8 µM
MIC [7]: 4 µM
MBC [8]: 4 µM
MIC [8]: 2 µM
GM, Gram-positive bacteria [9]: 2.44 µM
TI, Gram-positive bacteria [9]: 104.92
GM, Gram-negative bacteria [10]: 5.88 µM
TI, Gram-negative bacteria [10]: 43.54
MIC, FeCl3 [11]: 8 µM
MIC, NH4Cl [11]: 4 µM
MIC, ZnCl2 [11]: 4 µM
MIC, MgCl2 [11]: 4 µM
MIC, CaCl2 [11]: 8 µM
MIC, KCl [11]: 8 µM
MIC, NaCl [11]: 8 µM
MIC, Control [11]: 4 µM
MBC [12]: 16 µM
MIC [12]: 8 µM
MBC [13]: 8 µM
MIC [13]: 4 µM
MBC [14]: 8 µM
MIC [14]: 4 µM
MBC [15]: 32 µM
MIC [15]: 4 µM
MIC, FeCl3 [16]: 8 µM
MIC, NH4Cl [16]: 4 µM
MIC, ZnCl2 [16]: 4 µM
MIC, MgCl2 [16]: 4 µM
MIC, CaCl2 [16]: 4 µM
MIC, KCl [16]: 4 µM
MIC, NaCl [16]: 4 µM
MIC, Control [16]: 4 µM
MBC [17]: 2 µM
MIC [17]: 1 µM
MBC [18]: 16 µM
MIC [18]: 8 µM
MBC [19]: 32 µM
MIC [19]: 16 µM

RWRWRRWWW-NH2 [W9]
MBC [1]: 8 µM
MIC [1]: 4 µM
MBC [2]: 8 µM
MIC [2]: 4 µM
MBC [3]: 4 µM
MIC [3]: 2 µM
MBC [4]: 4 µM
MIC [4]: 2 µM
GM, All [5]: 3.51 µM
TI, All [5]: 72.93
MBC [6]: 8 µM
MIC [6]: 4 µM
MBC [7]: 4 µM
MIC [7]: 2 µM
MBC [8]: 4 µM
MIC [8]: 2 µM
GM, Gram-positive bacteria [9]: 2.44 µM
TI, Gram-positive bacteria [9]: 104.92
GM, Gram-negative bacteria [10]: 4.67 µM
TI, Gram-negative bacteria [10]: 54.82
MIC, FeCl3 [11]: 4 µM
MIC, NH4Cl [11]: 4 µM
MIC, ZnCl2 [11]: 8 µM
MIC, MgCl2 [11]: 8 µM
MIC, CaCl2 [11]: 16 µM
MIC, KCl [11]: 8 µM
MIC, NaCl [11]: 16 µM
MIC, Control [11]: 4 µM
MBC [12]: 8 µM
MIC [12]: 4 µM
MBC [13]: 8 µM
MIC [13]: 4 µM
MBC [14]: 8 µM
MIC [14]: 4 µM
MBC [15]: 16 µM
MIC [15]: 8 µM
MIC, FeCl3 [16]: 2 µM
MIC, NH4Cl [16]: 2 µM
MIC, ZnCl2 [16]: 2 µM
MIC, MgCl2 [16]: 2 µM
MIC, CaCl2 [16]: 4 µM
MIC, KCl [16]: 2 µM
MIC, NaCl [16]: 2 µM
MIC, Control [16]: 2 µM
MBC [17]: 4 µM
MIC [17]: 2 µM
MBC [18]: 16 µM
MIC [18]: 8 µM
MBC [19]: 8 µM
MIC [19]: 4 µM

RWWWWRRWR-NH2 [W10]
MBC [1]: 8 µM
MIC [1]: 4 µM
MBC [2]: 4 µM
MIC [2]: 2 µM
MBC [3]: 4 µM
MIC [3]: 2 µM
MBC [4]: 4 µM
MIC [4]: 2 µM
GM, All [5]: 3.67 µM
TI, All [5]: 69.75
MBC [6]: 32 µM
MIC [6]: 16 µM
MBC [7]: 4 µM
MIC [7]: 2 µM
MBC [8]: 4 µM
MIC [8]: 2 µM
GM, Gram-positive bacteria [9]: 2.21 µM
TI, Gram-positive bacteria [9]: 115.84
GM, Gram-negative bacteria [10]: 5.44 µM
TI, Gram-negative bacteria [10]: 47.06
MIC, FeCl3 [11]: 4 µM
MIC, NH4Cl [11]: 8 µM
MIC, ZnCl2 [11]: 4 µM
MIC, MgCl2 [11]: 16 µM
MIC, CaCl2 [11]: 16 µM
MIC, KCl [11]: 16 µM
MIC, NaCl [11]: 32 µM
MIC, Control [11]: 8 µM
MBC [12]: 8 µM
MIC [12]: 4 µM
MBC [13]: 16 µM
MIC [13]: 8 µM
MBC [14]: 16 µM
MIC [14]: 8 µM
MBC [15]: 8 µM
MIC [15]: 4 µM
MIC, FeCl3 [16]: 1 µM
MIC, NH4Cl [16]: 1 µM
MIC, ZnCl2 [16]: 1 µM
MIC, MgCl2 [16]: 2 µM
MIC, CaCl2 [16]: 2 µM
MIC, KCl [16]: 2 µM
MIC, NaCl [16]: 2 µM
MIC, Control [16]: 2 µM
MBC [17]: 4 µM
MIC [17]: 2 µM
MBC [18]: 16 µM
MIC [18]: 8 µM
MBC [19]: 8 µM
MIC [19]: 4 µM
